Measured values as given in US20030180291A1, “Method of inactivating viruses” (priority 1998, published 2003).
Values joined by “and” are separate entries in the source; they are usually repeats but may differ in a detail not shown here. Equal values may be shown once.

What was measured:
[1] = system: Vesicular Stomatitis (VSV, strain Indiana)
[2] = system: Humane Immunodeficiency Virus Type 1 (HIV-1, strain HTLV-IIIb)
[3] = system: Vesicular Stomatitis virus (VSV); assay type: cell-based
[4] = system: PseudoRabies virus (PSR, strain Bartha K61)
humane erythrocytes = assay type: cell-based, human

Compound | effect of dipyridamol on the effective concentration of sensitizer [1] | effect of dipyridamol on the effective concentration of sensitizer [2] | effect of light exposure on virus inactivation in absence of sensitizer [3] | effect of dipyridamol on the effective concentration of sensitizer [4] | haemolysis after the erythrocytes had been stored for 12 days at 4° C. (humane erythrocytes) | effective [DMMB] [1] | effective [DMMB] [2] [µM] | effective [DMMB] [4] [µM]
OCCN(CCO)c1nc(N2CCCCC2)c2nc(N(CCO)CCO)nc(N3CCCCC3)c2n1 [dipyridamol] | did not, or only barely appear to affect | did not, or only barely appear to affect | no effect at all | did not, or only barely appear to affect | very strong reduction |  |  | 
Cc1ncc(COP(=O)(O)O)c(C=O)c1O [pyridoxal phosphate] |  |  | no effect at all |  |  |  |  | 
Cc1cc(=[N+](C)C)cc2sc3cc(N(C)C)cc(C)c3nc1-2.[Cl-] [DMMB, dimethyl-methylene blue] |  |  |  |  |  | 4 µM and 5 µM | 8 | 4
